Measured values as given in the NIST ThermoML archive (doi:10.1016/j.jct.2016.03.034).

Experiment: xn = mol fraction of the nth substance listed
Conditions: 100 kPa, Liquid; for viscosity: Capillary tube (Ostwald / Ubbelohde) method; for mass density: Vibrating tube method

O=C1CCCO1 [γ-butyrolactone] + CCCCCCCCn1cc[n+](C)c1.O=S(=O)([N-]S(=O)(=O)C(F)(F)F)C(F)(F)F
Conditions | mass density [kg/m3] | viscosity [mPa·s]
293.15 K, x2 = 0 | 1129.49 | 1.86
293.15 K, x2 = 0.0486 | 1168.04 | 2.77
293.15 K, x2 = 0.1001 | 1197.81 | 4
293.15 K, x2 = 0.1497 | 1219.5 | 5.49
293.15 K, x2 = 0.2006 | 1237.06 | 7.48
293.15 K, x2 = 0.3037 | 1262.89 | 12.83
293.15 K, x2 = 0.394 | 1278.72 | –
293.15 K, x2 = 0.4952 | 1292.01 | 29.29
293.15 K, x2 = 0.586 | 1300.99 | –
293.15 K, x2 = 0.7007 | 1309.94 | 54.57
293.15 K, x2 = 0.8081 | 1316.42 | –
293.15 K, x2 = 0.9003 | 1321 | 87.86
298.15 K, x2 = 0 | 1124.59 | 1.71
298.15 K, x2 = 0.0486 | 1163.25 | 2.53
298.15 K, x2 = 0.1001 | 1193.1 | 3.64
298.15 K, x2 = 0.1497 | 1214.96 | 4.9
298.15 K, x2 = 0.2006 | 1232.47 | 6.56
298.15 K, x2 = 0.3037 | 1258.37 | 10.89
298.15 K, x2 = 0.394 | 1274.26 | –
298.15 K, x2 = 0.4952 | 1287.58 | 23.62
298.15 K, x2 = 0.586 | 1296.61 | –
298.15 K, x2 = 0.7007 | 1305.54 | 42.86
298.15 K, x2 = 0.8081 | 1312.07 | –
298.15 K, x2 = 0.9003 | 1316.57 | 68
303.15 K, x2 = 0 | 1119.68 | 1.58
303.15 K, x2 = 0.0486 | 1158.47 | 2.31
303.15 K, x2 = 0.1001 | 1188.35 | 3.26
303.15 K, x2 = 0.1497 | 1210.25 | 4.41
303.15 K, x2 = 0.2006 | 1227.82 | 5.8
303.15 K, x2 = 0.3037 | 1253.81 | 9.44
303.15 K, x2 = 0.394 | 1269.73 | –
303.15 K, x2 = 0.4952 | 1283.09 | 19.3
303.15 K, x2 = 0.586 | 1292.14 | –
303.15 K, x2 = 0.7007 | 1301.1 | 34.7
303.15 K, x2 = 0.8081 | 1307.63 | –
303.15 K, x2 = 0.9003 | 1312.16 | 53.86
308.15 K, x2 = 0 | 1114.78 | 1.47
308.15 K, x2 = 0.0486 | 1153.69 | 2.12
308.15 K, x2 = 0.1001 | 1183.64 | 2.96
308.15 K, x2 = 0.1497 | 1205.57 | 3.97
308.15 K, x2 = 0.2006 | 1223.18 | 5.15
308.15 K, x2 = 0.3037 | 1249.22 | 8.26
308.15 K, x2 = 0.394 | 1265.2 | –
308.15 K, x2 = 0.4952 | 1278.6 | 16.57
308.15 K, x2 = 0.586 | 1287.67 | –
308.15 K, x2 = 0.7007 | 1296.66 | 28.87
308.15 K, x2 = 0.8081 | 1303.22 | –
308.15 K, x2 = 0.9003 | 1307.76 | 43.53
313.15 K, x2 = 0 | 1109.87 | 1.37
313.15 K, x2 = 0.0486 | 1148.89 | 1.96
313.15 K, x2 = 0.1001 | 1178.93 | 2.72
313.15 K, x2 = 0.1497 | 1200.87 | 3.61
313.15 K, x2 = 0.2006 | 1218.54 | 4.62
313.15 K, x2 = 0.3037 | 1244.66 | 7.27
313.15 K, x2 = 0.394 | 1260.67 | –
313.15 K, x2 = 0.4952 | 1274.11 | 13.95
313.15 K, x2 = 0.586 | 1283.2 | –
313.15 K, x2 = 0.7007 | 1292.22 | 23.79
313.15 K, x2 = 0.8081 | 1298.8 | –
313.15 K, x2 = 0.9003 | 1303.36 | 35.68
318.15 K, x2 = 0 | 1104.96 | 1.28
318.15 K, x2 = 0.0486 | 1144.1 | 1.82
318.15 K, x2 = 0.1001 | 1174.21 | 2.49
318.15 K, x2 = 0.1497 | 1196.2 | 3.23
318.15 K, x2 = 0.2006 | 1213.93 | 4.17
318.15 K, x2 = 0.3037 | 1240.09 | 6.47
318.15 K, x2 = 0.394 | 1256.15 | –
318.15 K, x2 = 0.4952 | 1269.61 | 12
318.15 K, x2 = 0.586 | 1278.74 | –
318.15 K, x2 = 0.7007 | 1287.82 | 19.85
318.15 K, x2 = 0.8081 | 1294.4 | –
318.15 K, x2 = 0.9003 | 1298.97 | 29.79
323.15 K, x2 = 0 | 1100.05 | 1.2
323.15 K, x2 = 0.0486 | 1139.34 | 1.69
323.15 K, x2 = 0.1001 | 1169.52 | 2.29
323.15 K, x2 = 0.1497 | 1191.56 | 2.95
323.15 K, x2 = 0.2006 | 1209.34 | 3.78
323.15 K, x2 = 0.3037 | 1235.56 | 5.8
323.15 K, x2 = 0.394 | 1251.63 | –
323.15 K, x2 = 0.4952 | 1265.15 | 10.5
323.15 K, x2 = 0.586 | 1274.3 | –
323.15 K, x2 = 0.7007 | 1283.4 | 16.69
323.15 K, x2 = 0.8081 | 1290.01 | –
323.15 K, x2 = 0.9003 | 1294.6 | 25.43

O=C1CCCO1 [γ-butyrolactone] + CCCCCC[n+]1ccn(C)c1.O=S(=O)([N-]S(=O)(=O)C(F)(F)F)C(F)(F)F
Conditions | mass density [kg/m3] | viscosity [mPa·s]
293.15 K, x2 = 0 | 1129.49 | 1.86
293.15 K, x2 = 0.0507 | 1176 | 2.63
293.15 K, x2 = 0.0999 | 1209.89 | 3.68
293.15 K, x2 = 0.1544 | 1238.99 | 5.32
293.15 K, x2 = 0.1999 | 1258.54 | 6.49
293.15 K, x2 = 0.3004 | 1291.11 | 10.57
293.15 K, x2 = 0.404 | 1314.91 | –
293.15 K, x2 = 0.5044 | 1332.2 | 23.96
293.15 K, x2 = 0.596 | 1344.4 | –
293.15 K, x2 = 0.7027 | 1355.85 | 44.32
293.15 K, x2 = 0.8182 | 1365.51 | –
293.15 K, x2 = 0.8924 | 1370.62 | 70.24
298.15 K, x2 = 0 | 1124.59 | 1.71
298.15 K, x2 = 0.0507 | 1171.09 | 2.43
298.15 K, x2 = 0.0999 | 1204.99 | 3.32
298.15 K, x2 = 0.1544 | 1234.06 | 4.67
298.15 K, x2 = 0.1999 | 1253.61 | 5.73
298.15 K, x2 = 0.3004 | 1286.27 | 9.16
298.15 K, x2 = 0.404 | 1310.08 | –
298.15 K, x2 = 0.5044 | 1327.28 | 19.96
298.15 K, x2 = 0.596 | 1339.47 | –
298.15 K, x2 = 0.7027 | 1350.79 | 35.8
298.15 K, x2 = 0.8182 | 1360.52 | –
298.15 K, x2 = 0.8924 | 1365.62 | 55.4
303.15 K, x2 = 0 | 1119.68 | 1.58
303.15 K, x2 = 0.0507 | 1166.32 | 2.18
303.15 K, x2 = 0.0999 | 1200.4 | 3
303.15 K, x2 = 0.1544 | 1229.53 | 4.08
303.15 K, x2 = 0.1999 | 1249.21 | 5.07
303.15 K, x2 = 0.3004 | 1281.91 | 7.91
303.15 K, x2 = 0.404 | 1305.79 | –
303.15 K, x2 = 0.5044 | 1323.05 | 16.88
303.15 K, x2 = 0.596 | 1335.25 | –
303.15 K, x2 = 0.7027 | 1346.64 | 29.15
303.15 K, x2 = 0.8182 | 1356.39 | –
303.15 K, x2 = 0.8924 | 1361.5 | 44.29
308.15 K, x2 = 0 | 1114.78 | 1.47
308.15 K, x2 = 0.0507 | 1161.53 | 1.97
308.15 K, x2 = 0.0999 | 1195.65 | 2.74
308.15 K, x2 = 0.1544 | 1224.8 | 3.69
308.15 K, x2 = 0.1999 | 1244.56 | 4.55
308.15 K, x2 = 0.3004 | 1277.26 | 7
308.15 K, x2 = 0.404 | 1301.16 | –
308.15 K, x2 = 0.5044 | 1318.46 | 14.47
308.15 K, x2 = 0.596 | 1330.67 | –
308.15 K, x2 = 0.7027 | 1342.09 | 25.57
308.15 K, x2 = 0.8182 | 1351.83 | –
308.15 K, x2 = 0.8924 | 1356.94 | 36.71
313.15 K, x2 = 0 | 1109.87 | 1.37
313.15 K, x2 = 0.0507 | 1156.54 | 1.84
313.15 K, x2 = 0.0999 | 1190.58 | 2.52
313.15 K, x2 = 0.1544 | 1219.69 | 3.34
313.15 K, x2 = 0.1999 | 1239.41 | 4.11
313.15 K, x2 = 0.3004 | 1272 | 6.23
313.15 K, x2 = 0.404 | 1295.78 | –
313.15 K, x2 = 0.5044 | 1313.05 | 12.29
313.15 K, x2 = 0.596 | 1325.23 | –
313.15 K, x2 = 0.7027 | 1336.62 | 20.49
313.15 K, x2 = 0.8182 | 1346.3 | –
313.15 K, x2 = 0.8924 | 1351.37 | 30.2
318.15 K, x2 = 0 | 1104.96 | 1.28
318.15 K, x2 = 0.0507 | 1151.65 | 1.7
318.15 K, x2 = 0.0999 | 1185.71 | 2.31
318.15 K, x2 = 0.1544 | 1214.89 | 3.03
318.15 K, x2 = 0.1999 | 1234.59 | 3.7
318.15 K, x2 = 0.3004 | 1267.16 | 5.72
318.15 K, x2 = 0.404 | 1290.94 | –
318.15 K, x2 = 0.5044 | 1308.19 | 10.74
318.15 K, x2 = 0.596 | 1320.36 | –
318.15 K, x2 = 0.7027 | 1331.75 | 17.5
318.15 K, x2 = 0.8182 | 1341.42 | –
318.15 K, x2 = 0.8924 | 1346.5 | 25.41
323.15 K, x2 = 0 | 1100.05 | 1.2
323.15 K, x2 = 0.0507 | 1147.03 | 1.58
323.15 K, x2 = 0.0999 | 1181.36 | 2.14
323.15 K, x2 = 0.1544 | 1210.78 | 2.69
323.15 K, x2 = 0.1999 | 1230.51 | 3.38
323.15 K, x2 = 0.3004 | 1263.32 | 5.21
323.15 K, x2 = 0.404 | 1287.31 | –
323.15 K, x2 = 0.5044 | 1304.67 | 9.36
323.15 K, x2 = 0.596 | 1316.95 | –
323.15 K, x2 = 0.7027 | 1328.43 | 15
323.15 K, x2 = 0.8182 | 1338.19 | –
323.15 K, x2 = 0.8924 | 1343.3 | 21.39
